Laboratory results as given in patent US11578055B2, “Triazacyclododecansulfonamide (“TCD”)-based protein secretion inhibitors” (KEZAR LIFE SCIENCES, priority 2018, dated 2023).
Read-outs that look alike come from different tables or passages of the source.

Tests used:
[1] = tested on: PD1 signal sequence plus 10 amino acids fused to Gaussia Luciferase (PD1-ss+10aa/Gaussia Luciferase); experiment: Dox Induced PD1-ss-Gluc Assay; type: cell-based; details: 24 hr, read-out: 24 hr Dox Inducible PD1ssGluc 293FRT/TO: Mean IC50
Method in brief: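 Compound dilutions in DMSO/media containing doxycycline were applied to a stable, inducible 293 T-REx line carrying the luciferase fusion, then incubated at 37 °C, 5% CO2. Where stereochemistry is not drawn, values relate to isomer mixtures.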

[2] = tested on: full length TNFα (amino acids 1-233) fused to Gaussia Luciferase; experiment: Dox Induced TNFα-FL-Gluc Assay; type: cell-based; details: 24 hr, read-out: 24 hr Dox Inducible TNFaFLGluc 293FRT/TO: Mean IC50
Method in brief: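 Compounds diluted in DMSO/medium with doxycycline were incubated at 37° C, 5% CO2 with 293 T-REx cells stably carrying a Tet-regulated TNFα(1-233)-Gaussia luciferase construct. Data for structures drawn without stereochemistry refer to stereoisomer mixtures.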

[3] = tested on: full length IL-2 (amino acids 1-153) fused to Gaussia Luciferase; experiment: Dox Induced IL2-FL-Gluc Assay; type: cell-based; details: 24 hr, Dox inducible, 293FRT/TO cells; read-out: 24 hr Dox Inducible IL2FLGluc 293FRT/TO: Mean IC50
Source text: FIp-In 293 T-REx™ cells were transfected with pcDNA™5/FRT/TO plasmid inserted with cDNA encoding Gaussia Luciferase fused to the 3′ end of cDNA encoding full length IL-2 (amino acids 1-153). Transfected cells were selected for resistance to the selectable markers Hygromycin and Blasticidin to create a stable cell line that contained the IL-2-FL/Gaussia Luciferase cDNA insert whose expression was regulated under the T-REx™ system. The day before assay, cells were trypsinized and plated in 384-well tissue culture plates. The next day, compound dilutions in DMSO/media containing doxycycline were added to the wells and incubated at 37° C., 5% CO2.
For chemical structures that include one or more stereoisomers, but are illustrated without indicating stereochemistry, the assay data refers to a mixture of stereoisomers.

[4] = tested on: multiple myeloma cell line NCl-H929; experiment: H929 Cell Viability Assay; type: cell-based, human; details: Homo sapiens, NCI-H929, 48 h
Method in brief: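 Viability was determined by CellTiter-Glo luminescence after a 48 h, 37 °C exposure of NCI-H929 cells to serial compound dilutions in medium containing 10% FBS. Where stereochemistry is not shown, values refer to a mix of stereoisomers.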

[5] = tested on: multiple myeloma cell line U266B1; experiment: U266 Cell Viability Assay; type: cell-based, human; details: Homo sapiens, U-266, 48 hr
Method in brief: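 Viability was measured by CellTiter-Glo luminescence after 48 h compound exposure at 37° C, 5% CO2. The cells were U266B1 multiple myeloma cells grown in RPMI 1640 plus 10% FBS. Where stereochemistry is not shown, values apply to the stereoisomer mixture.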

[6] = In Vitro Microsome Stability Assay (human); type: in vitro ADME
Method in brief: (§1)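 The value reported is the percentage of parent left after 30 min, calculated from analyte/IS peak-area ratios relative to time zero by LC-MS/MS. Incubations ran at 37° C in 0.1 M potassium phosphate with NADPH and microsomes (stock 20 mg/mL), with compound added from a 0.25 mM DMSO stock. Acetonitrile containing IS stopped the reactions.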

[7] = In Vitro Microsome Stability Assay (mouse); type: in vitro ADME
Method in brief: as §1

[8] = In Vitro Microsome Stability Assay (rat); type: in vitro ADME
Method in brief: as §1

[9] = In Vitro Microsome Stability Assay (monkey); type: in vitro ADME
Method in brief: as §1

[10] = human liver microsomes, 30 min w/ NADPH
[11] = mouse liver microsomes, 30 min w/ NADPH
[12] = rat liver microsomes, 30 min w/ NADPH
[13] = monkey liver microsomes, 30 min w/ NADPH
[14] = H929, read-out: 48 hr H929 Viability Celltiter-Glo: Mean EC50
[15] = U266, read-out: 48 hr U266 Viability Celltiter-Glo: Mean EC50

| SMILES | IC50 ([1]; Dox inducible, 293FRT/TO cells) [µM] | IC50 ([2]; Dox inducible, 293FRT/TO cells) [µM] | IC50 [3] [µM] | EC50 ([4]; H929, Celltiter-Glo) [µM] | EC50 ([5]; U266, Celltiter-Glo) [µM] | Liver Microsome Stability-% Left after 30 min w/ NADPH (%) Human [6, 10] [%] | Liver Microsome Stability-% Left after 30 min w/ NADPH (%) Mouse [7, 11] [%] | Liver Microsome Stability-% Left after 30 min w/ NADPH (%) Rat [8, 12] [%] | Liver Microsome Stability-% Left after 30 min w/ NADPH (%) Monkey [9, 13] [%] | IC50 ([1]; 293FRT/TO) [µM] | IC50 ([2]; 293FRT/TO) [µM] | EC50 [4, 14] [µM] | EC50 [5, 15] [µM] | Liver Microsome Stability-% Left after 30 min w/ NADPH (%) Human ([6]; human, 30 min, NADPH) [%] | Liver Microsome Stability-% Left after 30 min w/ NADPH (%) Mouse ([7]; mouse, 30 min, NADPH) [%] | Liver Microsome Stability-% Left after 30 min w/ NADPH (%) Rat ([8]; rat, 30 min, NADPH) [%] | Liver Microsome Stability-% Left after 30 min w/ NADPH (%) Monkey ([9]; monkey, 30 min, NADPH) [%] |
| --- | --- | --- | --- | --- | --- | --- | --- | --- | --- | --- | --- | --- | --- | --- | --- | --- | --- |
| C[C@H](CNS(=O)(=O)c1ccc(N(C)C)cc1)CNS(=O)(=O)N1CCc2cc(Cl)ccc2C1 [B11, N-[(2 R)-3-{[(6-chloro-1,2,3,4-tetrahydroisoquinolin-2-yl)sulfonyl]amino}-2-methylpropyl]-4-(dimethylamino)benzene-1-sulfonamide] | > 25 | > 25 | > 25 | > 25 | > 25 |  |  |  |  |  |  |  |  |  |  |  |  |
| COc1cccc2c1CCN(S(=O)(=O)N1CCCN(CC3CCCCC3)CCCN(S(=O)(=O)c3ccc(N(C)C)cc3)C[C@H](C)C1)C2 [A138, 4-{[(3S)-9-(cyclohexylmethyl)-5-[(5-methoxy-1,2,3,4-tetrahydroisoquinolin-2-yl)sulfonyl]-3-methyl-1,5,9-triazacyclododecan-1-yl]sulfonyl}-N,N-dimethylaniline] | 0.0739 | 0.947 | 0.156 | 2.4 | > 25 | 8.84 | 13.2 | 17.1 | 12.5 |  |  |  |  |  |  |  |  |
| C[C@@H](CN(C)S(=O)(=O)c1ccc(N(C)C)cc1)CN(C)S(=O)(=O)N1CCc2cc(Cl)ccc2C1 [B12] | 5.66 | > 25 | > 25 | > 25 | > 25 |  |  |  |  |  |  |  |  |  |  |  |  |
| C[C@H]1CN(S(=O)(=O)c2ccc(N(C)C)cc2)CCCN(CC2CCCCC2)CCCN(S(=O)(=O)N2CCN(C(=O)OC(C)(C)C)CC2)C1 [A153, tert-butyl 4-{[(3S)-9-(cyclohexylmethyl)-5-[4-(dimethylamino)benzenesulfonyl]-3-methyl-1,5,9-triazacyclododecan-1-yl]sulfonyl}piperazine-1-carboxylate] | 1.29 | > 25 | 1.26 | > 25 | > 25 | 2.57 | 0.87 | 6.23 | 1.26 |  |  |  |  |  |  |  |  |
| C[C@@H]1CCN(S(=O)(=O)N2CCc3cc(Cl)ccc3C2)CCCN(CC2CCCCC2)CCCN1S(=O)(=O)c1ccc(N(C)C)cc1 [A149, 4-{[(2 R)-5-[(6-chloro-1,2,3,4-tetrahydroisoquinolin-2-yl)sulfonyl]-9-(cyclohexylmethyl)-2-methyl-1,5,9-triazacyclododecan-1-yl]sulfonyl}-N,N-dimethylaniline] | > 25 | > 25 | > 25 | > 25 | > 25 | 0.44 | 0.83 | 0.47 | 0.96 |  |  |  |  |  |  |  |  |
| C[C@@H](CNS(=O)(=O)c1ccc(N(C)C)cc1)CNS(=O)(=O)N1CCc2cc(Cl)ccc2C1 [B10, (S)-6-chloro-N-(3-((4-(dimethylamino)phenyl)sulfonamido)-2-methylpropyl)-3,4-dihydroisoquinoline-2(1H)-sulfonamide] | 16.5 | > 25 | 6.92 | > 25 | > 25 |  |  |  |  |  |  |  |  |  |  |  |  |
| C=C1CN(S(=O)(=O)c2ccc(N(C)C)cc2)CCCN(CC2CCCCC2)CCCN(S(=O)(=O)N2CCC(c3ccc(Cl)cc3)CC2)C1 [A72, 4-[(5-{[4-(4-chlorophenyl)piperidin-1-yl]sulfonyl}-9-(cyclohexylmethyl)-3-methylidene-1,5,9-triazacyclododecan-1-yl)sulfonyl]-N,N-dimethylaniline] |  |  |  |  |  |  |  |  |  | 0.0962 | 6.97 | 10.3 | > 25 | 62.5 | 43.3 | 54.6 | 53.2 |
| CN(C)c1ccc(S(=O)(=O)NCCCN(CCCNS(=O)(=O)N2CCC(c3ccccc3)CC2)CC2CCCCC2)cc1 [B7, N-{3-[(cyclohexylmethyl)(3-{[(4-phenylpiperidin-1-yl)sulfonyl]amino}propyl)amino]propyl}-4-(dimethylamino)benzene-1-sulfonamide] | 6.9 | 24.3 |  | 6.86 | 7.48 | 0.03 | 1.47 | 0.58 | 0.04 |  |  |  |  |  |  |  |  |
| C=C1CN(S(=O)(=O)c2ccc(N(C)C)cc2)CCCN(CC2CCCCC2)CCCN(S(=O)(=O)N2CC=C(C3=CCCCC3)CC2)C1 [A68, 4-[(5-{[4-(cyclohex-1-en-1-yl)-1,2,3,6-tetrahydropyridin-1-yl]sulfonyl}-9-(cyclohexylmethyl)-3-methylidene-1,5,9-triazacyclododecan-1-yl)sulfonyl}-N,N-dimethylaniline] |  |  |  |  |  |  |  |  |  | 0.156 | 6.44 | > 25 | > 25 | 50.5 | 55.1 | 57.1 | 57.1 |
| C=C1CN(S(=O)(=O)c2ccc(N(C)C)cc2)CCCN(CC2CCCCC2)CCCN(S(=O)(=O)N2CCC(c3nc4ccccc4o3)CC2)C1 [A80, 4-[(5-{[4-(1,3-benzoxazol-2-yl)piperidin-1-yl]sulfonyl}-9-(cyclohexylmethyl)-3-methylidene-1,5,9-triazacyclododecan-1-yl)sulfonyl]-N,N-dimethylaniline] |  |  |  |  |  |  |  |  |  | 0.273 | > 25 | > 25 | > 25 | 10.8 | 13.4 | 14.1 | 2.56 |
| CN(C)c1ccc(S(=O)(=O)N2C/C=C\CN(S(=O)(=O)N3CCC(c4ccccc4)CC3)CCCN(CC3CCCCC3)CCC2)cc1 [B8, 4-{[(11Z)-5-(cyclohexylmethyl)-9-[(4-phenylpiperidin-1-yl)sulfonyl]-1,5,9-triazacyclotridec-11-en-1-yl]sulfonyl}-N,N-dimethylaniline] | > 25 | > 25 |  | > 25 | > 25 | 22.1 | 17.1 | 23.8 | 15.5 |  |  |  |  |  |  |  |  |
| C[C@H]1CN(S(=O)(=O)c2ccc(N(C)C)cc2)CCCN(CC2CCCCC2)CCCN(S(=O)(=O)N2CCNCC2)C1 [A155, 4-{[(3S)-9-(cyclohexylmethyl)-3-methyl-5-(piperazine-1-sulfonyl)-1,5,9-triazacyclododecan-1-yl]sulfonyl}-N, N-dimethylaniline] | 1.35 |  | 3.48 | 7.8 | > 25 | 17.8 | 16.8 | 38.8 | 4.86 |  |  |  |  |  |  |  |  |
